Literature values, collected in patent US20260157999A1, “[…] OF ALKALOID COMPOUNDS AND […] USES THEREOF” (Sensorium Therapeutics, Inc., priority 2021, published 2026).

Settings: described pharmacokinetics, rapid metabolism and excretion

Question: For COc1ccc(C23CCC(=O)CC2N(C)CC3)cc1OC (stereo not shown) [Mesembrine, 3a-(3,4-dimethoxyphenyl)-octahydro-1-methyl-6H-indol-6-one], which half-life in plasma is on record?
Answer: The half-life in plasma was “less than 2 hours”.
